Tests used:
[1] = test system: PGC-1α; assay: PGC-1α levels in SH-SY5Y cells by immunoblot; format: cell-based; conditions: SH-SY5Y cells
Protocol: The 9 compounds that activate the PGC-1α promoter in the presence of PARIS were evaluated to determine which compounds induce PGC-1α levels in SH-SY5Y cells (FIGS. 2A and 2B). […] The mRNA level of PGC-1α target genes including copper/zinc superoxide dismutase (SOD1), manganese SOD (SOD2), glutathione peroxidase (GPx1), catalase (CAT), nuclear respiratory factor-1 (NRF-1), mitochondrial transcription factor A (TFAM), mitochondrial uncoupling proteins (UCP2 and UCP3), and the oxidative phosphorylation regulators, ATP5b, cytochrome C (CytC) and cytochrome C oxidase (COX II and IV) were determined by real-time quantitative RT-PCR (qRT-PCR) (FIG. 2C).
(§1) Geraniol or geranylgeraniol have no effect on PGC-1α levels (FIG. 3H).

[2] = test system: PARIS; assay: PARIS farnesylation in SH-SY5Y cells transfected with Flag-tagged PARIS (immunoprecipitation); format: cell-based
Protocol: as §1
To confirm that farnesylation of PARIS requires FTase, siRNA-FTase α knockdown or FTI-277 inhibition of FTase in the setting of PARIS overexpression was performed (FIG. 4C). […] To ascertain whether the farnesylation of PARIS affects the DNA binding activity of PARIS on the IRS motif of the PGC-1α promoter, a chromatin immunoprecipitation assay (ChIP) was performed from SH-SY5Y transfected with GFP-tagged PARIS WT or GFP-tagged PARIS C631S. […] To examine the possibility that the farnesylation of PARIS alters its subcellular distribution, subcellular fractionation was used to monitor the levels of PARIS in cytosolic, membrane, soluble nuclear, and chromatin-bound nuclear fractions by immunoblot analysis (FIG. 4F).

[3] = test system: PGC-1α promoter; assay: PGC-1α promoter activity with PARIS WT or PARIS C631S mutant; format: cell-based; conditions: PARIS WT; not observed with PARIS C631S mutant
[4] = test system: Tg-PARIS mice; assay: Tet inducible conditional PARIS transgenic mice (Tg-PARIS); format: in vivo
From the text: A C-terminal FLAG tagged human PARIS under the control of a tetracycline responsive regulator (TetP-PARIS-Flag) was used to generate tetracycline responsive transgenic mice (Figure S5A). […] Three of the highest copy number male founder mice were crossed with the CamKIIα-tTA transgenic mice to achieve transgene expression throughout the mouse forebrain (Mayford et al., 1996). […] Thus, dams were maintained on doxycycline to suppress PARIS expression and pups were maintained on doxycycline diet for three weeks after birth. […] Dopamine neuronal number was assessed at 6 weeks of age when the mice were moribund by unbiased stereology counting of TH and Nissl positive neurons.
A second cohort of Tg-PARIS mice were maintained on […] prior to doxycycline withdrawal. Two groups of non-transgenic control (CamKIIα-tTA or TetP-PARIS) mice were subjected to the same dietary regimen.
To generate tet-off conditional PARIS transgenic mice, linearized transgenic constructs (NotI digestion, 8 kbp) were microinjected into the embryos and the embryos were transferred into B6D2F1 pseudo-pregnant female mice (Transgenic Animal Core of National Cancer Institute). The three high copy founders (line #121, 158, 179) were mated with C57/BL6 mice for two to three generations to establish the transgenic lines. PARIS induction in conditional transgenic mice was suppressed by feeding the mice with doxycycline-containing food (doxycycline Diet-Sterile, 200 mg per kg doxycycline, Bio-Serv).

[5] = test system: cPK-KO mice; assay: Conditional adult parkin knockout (cPK-KO) mice; format: in vivo
From the text: In this setting, the level of farnesylated PARIS was monitored in the SN of cPK-KO mice fed with either chow diet or farnesol diet.
To generate Cre-flox conditional model of parkin knock out, an adeno-associated vector expressing GFP fused Cre recombinase (AAV-GFPCre) was stereotaxically introduced into the SN of exon 7 floxed parkin mice (parkin^Flox/Flox).

[6] = target: T1, PPARα (Homo sapiens, UniProt Q07869); conditions: cited from earlier work
T1 sequence (Q07869 1-468): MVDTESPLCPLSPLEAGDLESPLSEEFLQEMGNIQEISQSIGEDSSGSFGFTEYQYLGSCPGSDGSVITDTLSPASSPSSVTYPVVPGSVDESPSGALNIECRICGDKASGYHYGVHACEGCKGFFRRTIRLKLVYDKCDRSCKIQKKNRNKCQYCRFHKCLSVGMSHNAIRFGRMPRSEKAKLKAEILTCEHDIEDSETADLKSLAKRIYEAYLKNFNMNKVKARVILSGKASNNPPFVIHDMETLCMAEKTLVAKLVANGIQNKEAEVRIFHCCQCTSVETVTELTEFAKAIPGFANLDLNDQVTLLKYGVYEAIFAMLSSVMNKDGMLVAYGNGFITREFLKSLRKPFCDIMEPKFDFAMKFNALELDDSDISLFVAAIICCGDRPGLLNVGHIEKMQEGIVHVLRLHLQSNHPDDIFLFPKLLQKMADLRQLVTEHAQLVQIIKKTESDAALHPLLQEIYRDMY

[7] = dietary farnesol in rodents; cited from earlier work
[8] = SH-SY5Y, Flag-tagged PARIS, farnesol treatment 48 hours
[9] = farnesol-fed versus normal chow-fed mice

## CC(C)=CCC/C(C)=C/CC/C(C)=C/CO [farnesol, (2E,6E)-3,7,11-trimethyldodeca-2,6,10-trien-1-ol]
[1]
  PGC-1α level by immunoblot analysis: significantly increased
[2]; PARIS C631S mutant
  restoration of PGC-1α levels with PARIS C631S mutant: no effect
[2]; PARIS C631S mutant, in the presence of farnesol
  farnesylation of FLAG-PARIS C631S mutant: no farnesylation
[2]; PARIS WT
  PGC-1α level with PARIS WT: upregulation of PGC-1α
[2]; PARIS WT, farnesol treatment
  farnesylation of FLAG-PARIS WT: farnesylation is increased
[2]; [8]
  PARIS farnesylation: increases PARIS farnesylation in a dose-dependent manner
  PGC-1α accompanying PARIS farnesylation: increase in PGC-1α
[3]
  PGC-1α promoter activity: increase of PGC-1α promoter activity
[4]; Tg-PARIS SN, co-immunostaining
  dopaminergic neuronal PGC-1α immunoreactivity: increased dopaminergic neuronal PGC-1α immunoreactivity
[4]; Tg-PARIS, farnesol diet
  Pole Test behavior: complete behavioral rescue
  farnesylation of PARIS (FLAG immunoprecipitation, farnesyl antibody): enhanced farnesylation of PARIS
  premature lethality due to PARIS overexpression: delays the premature lethality
  reduction in PGC-1α and NRF-1 levels: blocked
[4]; Tg-PARIS, farnesol diet from 3 days prior to doxycycline withdrawal
  loss of dopamine neurons in the SN (TH and Nissl stereology): completely prevents the loss of dopamine neurons
[4]; [9]
  mRNA level of PGC-1α and NRF-1 in the SN: significantly upregulated
[4]; non-transgenic control mice, farnesol diet
  PGC-1α and NRF-1 levels in control mice: increases PGC-1α and NRF-1 levels
[5]; SN of cPK-KO mice, farnesol diet
  farnesylation of PARIS: enhanced farnesylation of PARIS
[5]; cPK-KO mice, farnesol diet
  decrements of PGC-1α and NRF-1 levels in the SN: prevents the decrements of PGC-1α and NRF-1 levels
[5]; cPK-KO, farnesol diet from 7 days prior to viral injection
  loss of dopamine neurons in the SN: completely and significantly prevents the loss of dopamine neurons
[5]; control mice, farnesol diet
  PGC-1α and NRF-1 levels in the SN of control mice: increases PGC-1α and NRF-1 levels
[5]; [9]
  mRNA of PGC-1α, NRF-1, SOD2, TFAM, UCP2, CytC, COX II and COX 1 in the SN: upregulation
[6]
  activation of PPARα in vitro: capable of activating
[7]
  cardioprotective effects: exhibits cardioprotective effects
